Target: T1, LmME (Leishmania major, UniProt Q4QAQ6)
T1 sequence (Q4QAQ6 1-573): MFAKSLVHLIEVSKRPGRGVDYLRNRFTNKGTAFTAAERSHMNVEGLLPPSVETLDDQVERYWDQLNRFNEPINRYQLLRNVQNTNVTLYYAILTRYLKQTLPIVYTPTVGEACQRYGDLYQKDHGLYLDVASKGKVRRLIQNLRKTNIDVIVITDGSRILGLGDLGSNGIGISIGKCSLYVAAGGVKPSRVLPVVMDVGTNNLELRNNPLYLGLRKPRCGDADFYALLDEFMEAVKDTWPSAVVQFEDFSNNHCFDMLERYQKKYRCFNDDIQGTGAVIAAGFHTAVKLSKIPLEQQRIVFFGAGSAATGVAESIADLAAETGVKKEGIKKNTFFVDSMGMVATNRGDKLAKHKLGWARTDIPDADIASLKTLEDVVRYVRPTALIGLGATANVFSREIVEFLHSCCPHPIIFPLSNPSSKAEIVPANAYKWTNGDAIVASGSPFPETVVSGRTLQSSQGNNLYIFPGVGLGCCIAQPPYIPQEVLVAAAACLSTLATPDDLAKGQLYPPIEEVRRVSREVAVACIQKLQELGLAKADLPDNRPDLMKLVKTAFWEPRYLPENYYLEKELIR
Experiment: spectrophotometric NADPH assay at […] nm, malate decarboxylation
Type: biochemical

IC50: 1.59 µM
Structure (SMILES): c1ccc(-c2nnc3sc(Cc4ccc5c(c4)CCCC5)nn23)nc1 [ATR7-010]

From paper doi:10.1101/2020.06.19.161828v1 (biorxiv, 2020)
